The first assay deals with T1, Progesterone receptor (Rattus norvegicus) (UniProt Q63449).
T1 sequence (whole entry): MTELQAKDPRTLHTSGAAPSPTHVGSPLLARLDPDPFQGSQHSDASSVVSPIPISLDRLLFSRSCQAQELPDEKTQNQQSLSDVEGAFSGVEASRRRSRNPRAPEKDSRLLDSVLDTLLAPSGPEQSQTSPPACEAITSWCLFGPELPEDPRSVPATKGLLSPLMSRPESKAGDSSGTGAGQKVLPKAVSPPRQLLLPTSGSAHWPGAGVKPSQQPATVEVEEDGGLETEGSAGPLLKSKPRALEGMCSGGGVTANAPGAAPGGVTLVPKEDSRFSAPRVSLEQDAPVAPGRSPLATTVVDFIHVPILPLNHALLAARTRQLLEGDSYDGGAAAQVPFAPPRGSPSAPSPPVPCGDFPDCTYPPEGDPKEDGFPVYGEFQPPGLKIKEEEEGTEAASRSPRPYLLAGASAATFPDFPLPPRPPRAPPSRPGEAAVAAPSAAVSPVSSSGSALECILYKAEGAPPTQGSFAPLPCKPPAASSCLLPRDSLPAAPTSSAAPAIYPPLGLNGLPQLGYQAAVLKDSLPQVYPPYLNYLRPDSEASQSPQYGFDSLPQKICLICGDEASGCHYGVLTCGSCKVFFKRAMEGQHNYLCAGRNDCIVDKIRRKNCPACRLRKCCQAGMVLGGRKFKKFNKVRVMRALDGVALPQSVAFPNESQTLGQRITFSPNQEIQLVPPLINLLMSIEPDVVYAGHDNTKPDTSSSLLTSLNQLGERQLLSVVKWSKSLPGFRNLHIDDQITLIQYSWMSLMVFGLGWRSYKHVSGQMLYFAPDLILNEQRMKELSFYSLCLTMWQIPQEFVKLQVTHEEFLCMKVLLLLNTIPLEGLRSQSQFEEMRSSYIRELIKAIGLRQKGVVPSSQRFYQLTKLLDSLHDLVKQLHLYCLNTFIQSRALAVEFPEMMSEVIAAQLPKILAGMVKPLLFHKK
The assay can be described thus: Inhibition of [3H]R5020 binding to rat uterine progesterone receptor relative to R5020.
`C[C@]12CC[C@H]3[C@@H](CCC4=CC(=O)CC[C@@H]43)[C@@H]1C[C@H]1O[C@@H](c3ccco3)O[C@]12C(=O)CF` had a relative binding affinity (RBA) of 190.
As for `C[C@]12CC[C@H]3[C@@H](CCC4=CC(=O)CC[C@@H]43)[C@@H]1C[C@H]1O[C@H](c3ccco3)O[C@]12C(=O)CF`, the relative binding affinity (RBA) worked out at 11.
Same read-out and setting: the value for `C[C@]12CC[C@H]3[C@@H](CCC4=CC(=O)CC[C@@H]43)[C@@H]1C[C@H]1O[C@H](c3ccco3)O[C@]12C(=O)CO` was 2.5; that for `C[C@]12CC[C@H]3[C@@H](CCC4=CC(=O)CC[C@@H]43)[C@@H]1C[C@H]1O[C@@H](c3ccco3)O[C@]12C(=O)CO` was 55.

The next assay addresses T2, Progesterone receptor (Homo sapiens) (UniProt P06401).
T2 sequence (whole entry): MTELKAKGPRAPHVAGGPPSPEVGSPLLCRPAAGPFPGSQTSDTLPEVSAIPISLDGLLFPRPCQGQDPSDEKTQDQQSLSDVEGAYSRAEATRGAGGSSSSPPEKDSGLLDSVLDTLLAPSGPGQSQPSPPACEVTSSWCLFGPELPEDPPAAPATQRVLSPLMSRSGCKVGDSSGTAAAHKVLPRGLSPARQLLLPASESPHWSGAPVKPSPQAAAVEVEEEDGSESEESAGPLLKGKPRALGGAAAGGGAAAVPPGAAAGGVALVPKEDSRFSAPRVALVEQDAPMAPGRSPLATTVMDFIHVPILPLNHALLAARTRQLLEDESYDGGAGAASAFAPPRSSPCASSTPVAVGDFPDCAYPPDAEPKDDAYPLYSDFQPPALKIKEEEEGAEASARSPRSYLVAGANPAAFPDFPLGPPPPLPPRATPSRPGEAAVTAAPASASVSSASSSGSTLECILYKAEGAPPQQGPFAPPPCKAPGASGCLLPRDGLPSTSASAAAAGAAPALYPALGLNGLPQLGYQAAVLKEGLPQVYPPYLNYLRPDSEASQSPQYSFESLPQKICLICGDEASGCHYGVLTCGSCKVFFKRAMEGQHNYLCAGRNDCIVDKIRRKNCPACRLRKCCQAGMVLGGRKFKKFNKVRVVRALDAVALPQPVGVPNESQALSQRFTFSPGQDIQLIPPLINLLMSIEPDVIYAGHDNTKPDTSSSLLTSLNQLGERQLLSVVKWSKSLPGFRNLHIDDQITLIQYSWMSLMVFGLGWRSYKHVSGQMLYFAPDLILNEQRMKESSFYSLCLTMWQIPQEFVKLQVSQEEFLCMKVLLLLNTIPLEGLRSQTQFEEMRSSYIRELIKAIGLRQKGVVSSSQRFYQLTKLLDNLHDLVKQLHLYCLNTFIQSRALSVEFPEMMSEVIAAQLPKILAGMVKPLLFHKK
The assay can be described thus: Inhibition of [3H]R5020 binding to human recombinant progesterone receptor relative to R5020.
Turning to `C[C@]12CC[C@H]3[C@@H](CCC4=CC(=O)CC[C@@H]43)[C@@H]1C[C@H]1O[C@@H](c3ccc(I)cc3)O[C@]12C(=O)CF`, the relative binding affinity (RBA) amounted to 6.4.
Turning to `CC(=O)CC(=O)[C@@]12O[C@H](c3ccc(Br)o3)O[C@@H]1C[C@H]1[C@@H]3CCC4=CC(=O)CC[C@@H]4[C@H]3CC[C@@]12C`, the relative binding affinity (RBA) worked out at 7.1.
`C[C@]12CC[C@H]3[C@@H](CCC4=CC(=O)CC[C@@H]43)[C@@H]1C[C@H]1O[C@@H](c3ccco3)O[C@]12C(=O)CF`: the relative binding affinity (RBA) was found to be 180.
Turning to `C[C@]12CC[C@H]3[C@@H](CCC4=CC(=O)CC[C@@H]43)[C@@H]1C[C@H]1O[C@H](c3ccc(I)cc3)O[C@]12C(=O)CO`, the relative binding affinity (RBA) is 1.8.
As to `C[C@]12CC[C@H]3[C@@H](CCC4=CC(=O)CC[C@@H]43)[C@@H]1C[C@H]1O[C@H](c3ccc(I)o3)O[C@]12C(=O)CF`, the relative binding affinity (RBA) amounted to 9.
On to `C[C@]12CC[C@H]3[C@@H](CCC4=CC(=O)CC[C@@H]43)[C@@H]1C[C@H]1O[C@H](c3ccco3)O[C@]12C(=O)CF`, for which the relative binding affinity (RBA) is 5.
`C[C@]12CC[C@H]3[C@@H](CCC4=CC(=O)CC[C@@H]43)[C@@H]1C[C@H]1O[C@H](c3ccc(Br)cc3)O[C@]12C(=O)CF`: the relative binding affinity (RBA) came to 4.7.
Consider `C[C@]12CC[C@H]3[C@@H](CCC4=CC(=O)CC[C@@H]43)[C@@H]1C[C@H]1O[C@H](c3ccco3)O[C@]12C(=O)CO`, for which the relative binding affinity (RBA) amounted to 2.4.
`C[C@]12CC[C@H]3[C@@H](CCC4=CC(=O)CC[C@@H]43)[C@@H]1C[C@H]1O[C@@H](c3ccc(Br)s3)O[C@]12C(=O)CO`: the relative binding affinity (RBA) was determined as 5.2.
Same read-out and setting: the value for `C[C@]12CC[C@H]3[C@@H](CCC4=CC(=O)CC[C@@H]43)[C@@H]1C[C@H]1O[C@@H](c3ccc(I)o3)O[C@]12C(=O)CF` was 40; that for `C[C@]12CC[C@H]3[C@@H](CCC4=CC(=O)CC[C@@H]43)[C@@H]1C[C@H]1O[C@H](c3ccc(Br)o3)O[C@]12C(=O)CF` was 4.4.
Take `C[C@]12CC[C@H]3[C@@H](CCC4=CC(=O)CC[C@@H]43)[C@@H]1C[C@H]1O[C@H](c3ccc(Br)o3)O[C@]12C(=O)CO`: the relative binding affinity (RBA) came to 2.3.
On to `C[C@]12CC[C@H]3[C@@H](CCC4=CC(=O)CC[C@@H]43)[C@@H]1C[C@H]1O[C@H](c3ccc(I)cc3)O[C@]12C(=O)CF`, for which the relative binding affinity (RBA) worked out at 34.
On the same count and under the same terms, for `C[C@]12CC[C@H]3[C@@H](CCC4=CC(=O)CC[C@@H]43)[C@@H]1C[C@H]1O[C@@H](c3ccc(Br)cc3)O[C@]12C(=O)CO` the value was 23.
For the molecule `C[C@]12CC[C@H]3[C@@H](CCC4=CC(=O)CC[C@@H]43)[C@@H]1C[C@H]1O[C@@H](c3ccc(I)o3)O[C@]12C(=O)CO`, the relative binding affinity (RBA) stood at 23.
In the case of `C[C@]12CC[C@H]3[C@@H](CCC4=CC(=O)CC[C@@H]43)[C@@H]1C[C@H]1O[C@@H](c3ccco3)O[C@]12C(=O)CO`, the relative binding affinity (RBA) amounted to 53.
With `C[C@]12CC[C@H]3[C@@H](CCC4=CC(=O)CC[C@@H]43)[C@@H]1C[C@H]1O[C@H](c3ccc(Br)s3)O[C@]12C(=O)CO`, the relative binding affinity (RBA) turned out to be 1.7.
For `C[C@]12CC[C@H]3[C@@H](CCC4=CC(=O)CC[C@@H]43)[C@@H]1C[C@H]1O[C@H](c3ccc(Br)cc3)O[C@]12C(=O)CO`, the relative binding affinity (RBA) was 0.41.
The same measure, in the same setting: the value for `C[C@]12CC[C@H]3[C@@H](CCC4=CC(=O)CC[C@@H]43)[C@@H]1C[C@H]1O[C@H](c3ccc(I)o3)O[C@]12C(=O)CO` was 2.6; that for `C[C@]12CC[C@H]3[C@@H](CCC4=CC(=O)CC[C@@H]43)[C@@H]1C[C@H]1O[C@@H](c3ccc(I)cc3)O[C@]12C(=O)CO` was 0.81.
On to `C[C@]12CC[C@H]3[C@@H](CCC4=CC(=O)CC[C@@H]43)[C@@H]1C[C@H]1O[C@@H](c3ccc(Br)o3)O[C@]12C(=O)CO`, for which the relative binding affinity (RBA) stood at 65.
Take `CC(=O)CC(=O)[C@@]12O[C@@H](c3ccc(Br)o3)O[C@@H]1C[C@H]1[C@@H]3CCC4=CC(=O)CC[C@@H]4[C@H]3CC[C@@]12C`: the relative binding affinity (RBA) amounted to 1.4.
Take `C[C@]12CC[C@H]3[C@@H](CCC4=CC(=O)CC[C@@H]43)[C@@H]1C[C@H]1O[C@@H](c3ccc(I)s3)O[C@]12C(=O)CO`: the relative binding affinity (RBA) amounted to 3.2.
Take `C[C@]12CC[C@H]3[C@@H](CCC4=CC(=O)CC[C@@H]43)[C@@H]1C[C@H]1O[C@@H](c3ccc(Br)cc3)O[C@]12C(=O)CF`: the relative binding affinity (RBA) amounted to 3.9.
On to `C[C@]12CC[C@H]3[C@@H](CCC4=CC(=O)CC[C@@H]43)[C@@H]1C[C@H]1O[C@@H](c3ccc(Br)o3)O[C@]12C(=O)CF`, for which the relative binding affinity (RBA) was found to be 24.
With `C[C@]12CC[C@H]3[C@@H](CCC4=CC(=O)CC[C@@H]43)[C@@H]1C[C@H]1O[C@H](c3ccc(I)s3)O[C@]12C(=O)CO`, the relative binding affinity (RBA) came out at 0.95.

For the origin of these results see ChEMBL document CHEMBL1138949, “Bromine- and iodine-substituted 16alpha,17alpha-dioxolane progestins for breast tumor imaging and radiotherapy: synthesis and receptor binding affinity” (J Med Chem, 2006).
